# Source: PMC12691742, “Anti-Cancer Outcome of Glucocorticoid Receptor Transrepression by Synephrine Derivatives in Hematological Malignancies” (International Journal of Molecular Sciences, 2025)
# “Also recorded” adds a separate entry of the source. Like-named read-outs stand apart in the source and are kept apart here.
# Columns and labels:
# [1] = tested on: primary lymphoblasts from pediatric patients with acute lymphoblastic leukemia; experiment: Resazurin cytotoxicity assay in primary lymphoblasts; type: cell-based; conditions: Homo sapiens
# Description: Peripheral blood samples were collected from 1–10-year-old pediatric patients with newly diagnosed ALL in the acute phase of the disease or from adult healthy volunteers at N.N. Blokhin National Research Center of Oncology. The Ethical Committee of the N.N. Blokhin National Research Center of Oncology approved this study, and written informed consents were provided. […] were isolated by centrifugation with Ficoll-Isopaque (“Paneco”, Russia) and then cultured in the RPMI-1640 media (“Paneco”, Russia) supplemented with 20% FBS (“Biowest”, France), 2 mM L-glutamine, 0.5 ME/mL penicillin and 0.5 µg/mL streptomycin (“Paneco”, Russia) and 10 mg/L phytohaemagglutinin (“Paneco”, Moscow, Russia).
# Isolated PBMCs were seeded into 96-well plates (2 × 10^6 cells/well) and treated with 10S-E2 at a wide range of concentrations (2–200 µM). Cell viability was analyzed after 24 h of incubation, assessing metabolic activity with the addition of 0.177 mg/mL of resazurin at 8–10 h before the end of the incubation. Fluorescence intensity was evaluated using a Fluoroskan FL microplate fluorimeter (“Thermo Scientific”, Waltham, MA, USA). The IC50 values were determined using GraphPad Prism (Ver.7.0) software. The experiments were performed in triplicate.
# [2] = tested on: IL1-α and IL6 mRNA expression in K562 and Granta cells; experiment: Q-PCR of GR transrepression marker genes; type: cell-based
# Description: Figure 4 Effects of synephrine derivatives on GR transrepression in Granta lymphoma and K562 leukemia cells. (A) K562 and Granta cells stably infected with the lentiviruses bearing the NF-kB luciferase reporter. Cells were incubated for 5 h with the solvent (control), TPA (5 ng/mL), 4S-C2 (10 µM), 8S-E3 (10 µM), 10S-E2 (1 µM), or 13S-G2 (1 µM). Luciferase activity was determined as described in the Materials and Methods section. (B) IL1-α and IL6 mRNA expression in K562 and Granta cells. Q-PCR results were normalized to the expression of the housekeeping gene RPL27 and are presented as the fold change compared to the control. The mean ± SD was calculated for three individual samples/condition (n = 3). Statistically significant differences compared to the control: * p < 0.05, ** p < 0.01.
# Total RNA isolation from cell cultures and murine bones, reverse transcription, and Q-PCR were performed as described in [36]. Primers were designed using NCBI Primer-BLAST https://www.ncbi.nlm.nih.gov/tools/primer-blast/, accessed on 25 August 2025 (Supplementary Table S1). Results were normalized to the expression of the housekeeping RPL27 и Rpl27 genes. The experiments were performed in triplicate.
# P388 murine lymphoma = experiment: Transplantable P388 murine lymphoma model; type: in vivo, mice; conditions: P388 model; Dex 1 mg/kg, 10S-E2 10 mg/kg i.p. 3 times per week
# Description: Figure 5 Pro-apoptotic and anti-cancer effects of synephrine derivatives in vitro and in vivo. (A) Effect of 4S-C2, 8S-E3, 10S-E2, and 13S-G2 on cell cycle progression in K562 and Granta cells after 24 h of incubation. The cells were fixed with ethanol, stained with propidium iodide, and analyzed using flow cytometry. Statistically significant difference compared to control: *—p < 0.05, **—p < 0.01 (n = 3). (B) In vivo anti-cancer activity was evaluated using the transplantable P388 murine lymphoma model. […] Tumor nodule size was measured twice a week using digital calipers. Statistically significant differences compared to the control: * p < 0.05, ** p < 0.01.
# The protocol for the experiment was approved by the local N.N. Blokhin National Medical Research Center Ethics Committee and corresponded to the guidelines for the welfare and use of animals in cancer research adopted by The United Kingdom Coordinating Committee on Cancer Prevention Research. P388 cells were injected i.p. into 5-week-old female DBA/2 mice (“Stolbovaya Farm”, Stolbovaya, Russia). After 15 days, the cells were collected from the peritoneum, washed, and resuspended in PBS. For the experiments, 0.1 mL containing 2 million cells obtained from the ascites was inoculated s.c. in 5-week-old female BDF1 mice (“Stolbovaya Farm”, Stolbovaya, Russia). […] Body weight was recorded twice a week for toxicity determination. Tumor size was measured three times per week using digital calipers.
# BALB/c female mice = experiment: Glucocorticoid-induced osteoporosis model: bone and skin morphometry, body weight; type: in vivo; conditions: Dex 20 mg/kg
# Description: (A) H&E bone staining and quantification of cortical bone thickness. (B) Q-PCR analysis of Rankl, Mmp9, Tsc2, Trap, and Bglap mRNA expression in bone tissue. […] (C) H&E skin staining and quantification of dermal adipose thickness (50 images per treatment group of 10 animals). Statistically significant differences compared to the control: * p < 0.05, ** p < 0.01.
# The protocol for the experiment was approved by the local N.N. Blokhin National Medical Research Center Ethics Committee and corresponded to the guidelines for the welfare and use of animals in cancer research adopted by The United Kingdom Coordinating Committee on Cancer Prevention Research. […] Body weight was recorded twice a week for toxicity control.
# Bone and skin samples from the GIOP experiment were fixed in formaldehyde and embedded in paraffin, and sections were stained with hematoxylin and eosin. After formaldehyde fixation, the bone samples were decalcified in decalcification buffer (0.5 M EDTA, 0.7 mM NaOH, pH7.0) for 14 days, washed twice with PBS, and further processed according to the standard histology protocol. The dermal adipose and bone thickness were quantified in sections stained with hematoxylin and eosin. At least five individual fields per slide of each sample/treatment (at least 50 images/treatment group) were analyzed using Axioplan2 microscope software (“Carl Zeiss”, Jena, Germany). The dermal adipose or bone thickness in treated animals is presented as a percentage of the control animals.
# [3] = i.p. every 24 h for 5 weeks, 10S-E2 10 mg/kg
smiles,measurement,setting,value
"CCCCCCNCC(O)c1ccc(OCc2ccccc2)cc1 (stereo not drawn) [10S-E2, 1-[4-(benzyloxy)phenyl]-2-(hexylamino)ethanol]",IC50,"[1]; 24 h, patient code 3, 24 h, read-out: IC50 of cytotoxic effect",40.9 ± 3.12 µM
same,IC50,"[1]; 24 h, patient code 4, 24 h, read-out: IC50 of cytotoxic effect",43.2 ± 9.48 µM
same,IC50,"[1]; 24 h, patient code 7, 24 h, read-out: IC50 of cytotoxic effect",43 ± 0.71 µM
same,IC50,"[1]; 24 h, patient code 8, 24 h, read-out: IC50 of cytotoxic effect",60.6 ± 0.97 µM
same,IC50,"[1]; 24 h, patient code 10, 24 h, read-out: IC50 of cytotoxic effect",71.3 ± 5.59 µM
same,IC50,"[1]; 24 h, patient code 12, 24 h, read-out: IC50 of cytotoxic effect",75.7 ± 4.63 µM
same,IC50,"[1]; 24 h, patient code 20, 24 h, read-out: IC50 of cytotoxic effect",64.2 ± 0.55 µM
same,IC50,"[1]; 24 h, patient code 21, 24 h, read-out: IC50 of cytotoxic effect",49.4 ± 1.95 µM
same,IC50,"[1]; 24 h, patient code 23, 24 h, read-out: IC50 of cytotoxic effect",55.2 ± 2.25 µM
same,IC50,"[1]; 24 h, patient code 24, 24 h, read-out: IC50 of cytotoxic effect",70.3 ± 2.54 µM
same,IC50,"[1]; 24 h, patient code 25, 24 h, read-out: IC50 of cytotoxic effect",80.3 ± 4.09 µM
same,IC50,"[1]; 24 h, patient code 30, 24 h, read-out: IC50 of cytotoxic effect",52.4 ± 0.07 µM
same,IC50,"[1]; 24 h, patient code 31, 24 h, read-out: IC50 of cytotoxic effect",63.2 ± 1.42 µM
same,IC50,"[1]; 24 h, patient code 33, 24 h, read-out: IC50 of cytotoxic effect",67.6 ± 4.02 µM
same,IC50,"[1]; 24 h, patient code 34, 24 h, read-out: IC50 of cytotoxic effect",55 ± 1.91 µM
same,IC50,"[1]; 24 h, patient code 35, 24 h, read-out: IC50 of cytotoxic effect",65.9 ± 0.27 µM
same,IC50,"[1]; 24 h, patient code 37, 24 h, read-out: IC50 of cytotoxic effect",69.8 ± 3.66 µM
same,IC50,"[1]; 24 h, patient code 39, 24 h, read-out: IC50 of cytotoxic effect",71.3 ± 2.59 µM
same,IC50,"[1]; 24 h, patient code 46, 24 h, read-out: IC50 of cytotoxic effect",71.5 ± 2.08 µM
same,IC50,"[1]; primary lymphoblast samples from 19 patients diagnosed with ALL, read-out: IC50 of cytotoxic effect, range over samples",40 to 70 µM
same,expression of GR TR marker genes IL1-α and IL6,[2],downregulation
same,animal body weight change vs control,P388 murine lymphoma,no statisticall y si gnificant differences
same,animal body weight vs control,"BALB/c female mice; GIOP study, 10S-E2 10 mg/kg i.p. every 24 h for 5 weeks",no statisticall y si gnificant differences; also recorded: similar
same,loss of cortical bone thickness,BALB/c female mice; [3],did not cause any loss
same,reduction of dermal adipose tissue / skin atrophy,BALB/c female mice; [3],preserved the skin architecture
